Reference: patent US7253286B2, “Nitrogen-containing aromatic derivatives” (Eisai Co., Ltd, priority 2000, dated 2007)

What was measured:
VEGFR2 = target: T1, VEGFR2 (Homo sapiens, UniProt P35968); assay: Inhibition against VEGFR2 kinase (receptor tyrosine kinase activity, HTRF method); assay type: biochemical; conditions: His6-VEGFR2 cytoplasmic domain, biotin-poly(GT) substrate, ATP, 30° C. 10 minutes, read-out: IC50 (concentration required for 50% inhibition of VEGFR2 kinase activity)
T1 construct: coding for the cytoplasmic domain, beginning with lysine 791 and including the termination codon; made in house; host or cells: Sf9 insect cells (baculovirus, pFastBacHis)
Text: Measurement of Inhibition Against Receptor Tyrosine Kinase Activity
This assay is used to determine inhibition of a test substance on tyrosine kinase activity. DNA coding for the cytoplasmic domain of VEGFR2 is obtained by total cDNA synthesis (Edwards M, International Biotechnology Lab 5(3), 19–25, 1987) or by cloning. Expression in an appropriate expression system can produce a polypeptide with tyrosine kinase activity. […] For VEGFR2 (Genbank Accession No. L04947), the 1.7 kb DNA fragment described by Terman et al. (Oncogene, 6(9), 1677–1683, 1991), coding for the cytoplasmic domain, beginning with lysine 791 and including the termination codon, was isolated from a human placental cDNA library (purchased from Clontech Laboratories, Inc.) and cloned in a Baculovirus expression vector (pFastBacHis, purchased from GIBCO BRL) The recombinant construct was transfected into insect cells (Spondoptea frugiperda9 (Sf9)) to prepare a recombinant Baculovirus. (Instructions for preparation and use of recombinant Baculovirus maybe found in standard texts, such as “Bac-To-Bac Baculovirus Expression System” (GIBCO BRL).) The cytoplasmic fragment starting from lysine 398 (FGFR1, Genbank Accession No. X52833), the cytoplasmic fragment starting from lysine 558 (PDGFRβ, Genbank Accession No. M21616) or the cytoplasmic fragment starting from lysine 974 (HGFR, Genbank Accession No. J02958) may be cloned and expressed by the same method for use in assays for other tyrosine kinases. EGFR was purchased from Sigma Co. (Product No. E-2645).
For expression of the VEGFR2 tyrosine kinase, Sf9 cells were infected with the VEGFR2 recombinant virus and collected after 48 hours. The collected cells were rinsed with ice-cooled phosphate buffered saline (PBS) and then resuspended using 20 ml of ice-cooled Lysis Buffer (50 mM Tris-HCl (pH 8.5), 5 mM 2-mercaptoethanol, 100 mM KCl, 1 mM phenylmethylsulfonyl fluoride, 1% (v/v) NP-40) per 1.5×10^8 cells. The suspension was centrifuged at 12,000 rpm for 30 minutes at 4° C. and the supernatant was obtained.
The supernatant was added to a Ni—NTA agarose column (3 ml, purchased from Qiagen) equilibrated with Buffer A {20 mM Tris-HCl (pH 8.5), 5 mM 2-mercaptoethanol, 500 mM KCl, 20 mM imidazole, 10% (v/v) glycerol}. The column was washed with 30 ml of Buffer A, and then with 6 ml of Buffer B {20 mM Tris-HCl (pH 8.5), 5 mM 2-mercaptoethanol, 1M KCl, 10% (v/v) glycerol}, and finally with 6 ml of Buffer A. After washing, it was eluted with 6 ml of Buffer C {20 mM Tris-HCl (pH8.5), 5mM2-mercaptoethanol, 100 mMKCl, 100 mM imidazole, 10% (v/v) glycerol}. The eluate was placed on a dialysis membrane (purchased from Spectrum Laboratories) and dialyzed with a dialysis buffer {20 mM Tris-HCl (pH 7.5), 10% (v/v) glycerol, 1 mM dithiothreitol, 0.1 mM Na3VO4, 0.1 mM EGTA}. After dialysis, it was supplied for SDS-electrophoresis, and the recombinant protein (His6-VEGFR2, cytoplasmic domain of VEGFR2 fused with 6 histidine residues at the N-terminus) detected at a molecular weight of approximately 100 kDa with Coumassie Brilliant Blue staining was assayed using BSA (bovine serum albumin, purchased from Sigma Co.) as the standard substance, and stored at −80° C. until use. Using the same method for the cytoplasmic domains of FGFR1, PDGFRβ and HGFR yielded respective recombinant proteins fused with 6 histidine residues at the N-termini (His6-FGFR1, His6-PDGFRβ or His6-HGFR).
The tyrosine kinase reaction was conducted as follows. […]

[1] = system: Human Umbilical Vein Endothelial Cells (HUVECs); assay: Inhibition against invasive tube formation by vascular endothelial cells in response to stimulation by angiogenic factor mixture; assay type: cell-based; set-up: key: the number of tubes formed in the absence of the test substance was designated as +++; scored on the 5-level scale of +++, ++, +, +/−, −; scored on the 5-level scale of +++, ++, +, +/−, −; scored on the 5-level scale of +++, ++, +, +/−, −; − was assigned if absolutely no tubes formed; conditions: HUVEC on fibrin gel, EGF/FGF2/VEGF/HGF/TNF-α mixture, 6th day, MTT staining; for number of tubes formed in the fibrin gel (score) at 0.01 μM: test substance 0.01 μM; for number of tubes formed in the fibrin gel (score) at 0.1 μM: test substance 0.1 μM; for number of tubes formed in the fibrin gel (score) at 1.0 μM: test substance 1.0 μM
Procedure: Inhibition Against Invasive Tube Formation by Vascular Endothelial Cells in Response to Stimulation by Angiogenic Factor Mixture
Human Umbilical Vein Endothelial Cells (HUVECs) were isolated according to a reported method (Shinseikagaku Jikken Koza [New Biochemistry Experiment Lectures], “Saibo Baiyo Gijutsu” [Cell Culturing Techniques], p.197–202), and were cultured in a 5% CO2 incubator (37° C.) using EGM-2 medium (purchased from Clonetics Corp.) until the cells reached confluency. After adding 0.4 ml of bovine fibrinogen (purchased from Sigma Co.) to the inner well of a Transwell culturing plate (purchased from Coster Inc.), it was hardened with 0.7 units/ml of thrombin (purchased from Sigma Co.). The HUVECs were recovered using trypsin-EDTA and then suspended in human endothelial serum free medium basal growth medium (hereinafter abbreviated as SFM, purchased from GIBCO BRL), and 0.4 ml of the cell suspension (1.4×10^5 cells) was seeded onto the hardened fibrin gel and cultured for approximately 4 hours in a 5% CO2 incubator (37° C.). After 4 hours, there was added to the outer chamber of the Transwell 1.5 ml of an SFM solution containing a mixture of angiogenic factors {10 ng/ml EGF (purchased from GIBCO BRL), 30 ng/ml FGF2 (purchased from GIBCO BRL), 75 ng/ml VEGF (purchased from Wako Pure Chemical Industries Co., Ltd.), 50 ng/ml HGF (purchased from R&D Co.) and 7.5 ng/ml TNF-α (purchased from Genzyme Corp.) [The concentrations of the angiogenic factors differed slightly according to the HUVEC lot.]} and a diluted test substance, and culturing was carried out in a 5% CO2 incubator (37° C.). On the 2nd and 4th days after adding the test substance, the medium was exchanged with 1.5 ml of freshly prepared SFM solution containing the angiogenic factor mixture and test substance. Upon aspirating off the culture supernatant in the inner well on the 6th day after the initial addition of the test substance, 0.4 ml of a 3.3 mg/ml MTT solution dissolved in PBS (purchased from Sigma Corp.) was added and culturing was performed for approximately 1 hour in a 5% CO2 incubator (37° C.). The number of tubes formed in the fibrin gel stained with MTT was scored based on microscope observation. Specifically, the number of tubes formed in the absence of the test substance was designated as +++, while − was assigned if absolutely no tubes formed. The number of tubes formed in the presence of the test substance was scored on the 5-level scale of +++, ++, +, +/−, − to evaluate the strength of inhibition of the test substance.

[2] = system: Human Umbilical Vein Endothelial Cells (HUVECs); assay: Inhibition against sandwich tube formation by vascular endothelial cells in response to stimulation by VEGF; assay type: cell-based; conditions: HUVEC in collagen gel sandwich, stimulation by VEGF (25 ng/ml VEGF and 10 ng/ml EGF), 4th day, total tube length, read-out: IC50 (concentration required for 50% inhibition of tube formation)
How it was run: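 HUVECs were sandwiched between collagen gel layers in serum-free medium with 25 ng/ml VEGF plus 10 ng/ml EGF, with test substance added above the gel at 37 °C. On day 4 tubes were MTT-stained and total tube length measured by image analysis. IC50 is the concentration halving tube length relative to no-compound wells.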

T1 sequence (P35968 786-1356 limits assumed): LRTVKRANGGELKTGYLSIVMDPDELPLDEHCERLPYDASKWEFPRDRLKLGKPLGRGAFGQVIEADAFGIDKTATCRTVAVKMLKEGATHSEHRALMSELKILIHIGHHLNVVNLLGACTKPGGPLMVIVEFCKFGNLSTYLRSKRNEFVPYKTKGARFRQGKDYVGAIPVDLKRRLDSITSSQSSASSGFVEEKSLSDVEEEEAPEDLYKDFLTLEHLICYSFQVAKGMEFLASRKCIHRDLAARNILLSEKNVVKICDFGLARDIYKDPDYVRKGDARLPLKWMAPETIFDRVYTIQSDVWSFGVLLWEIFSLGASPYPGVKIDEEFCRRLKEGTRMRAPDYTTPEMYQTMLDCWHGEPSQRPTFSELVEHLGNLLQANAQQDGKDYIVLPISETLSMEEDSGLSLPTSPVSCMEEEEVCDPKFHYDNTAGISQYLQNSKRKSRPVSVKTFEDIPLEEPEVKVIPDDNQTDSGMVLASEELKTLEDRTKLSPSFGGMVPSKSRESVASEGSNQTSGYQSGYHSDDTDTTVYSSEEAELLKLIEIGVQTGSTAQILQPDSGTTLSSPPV

IC50 (VEGFR2)	SMILES	number of tubes formed in the fibrin gel (score) at 0.01 μM [1]	number of tubes formed in the fibrin gel (score) at 0.1 μM [1]	number of tubes formed in the fibrin gel (score) at 1.0 μM [1]	IC50 [2]
9.9 nM	CONC(=O)c1cc2c(Oc3ccc(N(C)C(=O)Nc4ccc(F)cc4)cc3)ccnc2cc1OC [Example 437, N6-Methoxy-4-(4-(((4-fluoroanilino)carbonyl)(methyl)amino)phenoxy)-7-methoxy-6-quinolinecarboxamide]				
2.2 nM	COc1cc2nccc(Oc3ccc(NC(=O)NCCCSC)c(F)c3)c2cc1C(N)=O [Example 353, 4-(3-Fluoro-4-((3-methylthiopropylamino)carbonyl)aminophenoxy)-7-methoxy-6-quinolinecarboxamide]				
31 nM	COCCOc1cc2nccc(Sc3ccc(NC(=O)Nc4nccs4)s3)c2cc1C#N [Example 252, 1-{5-[6-Cyano-7-(2-methoxyethoxy)-quinolin-4-ylsulfanyl]-thiophen-2-yl}-3-(thiazol-2-yl)urea]				
16 nM	NC(=O)c1cc2c(Oc3ccc(NC(=O)NC4CC4)c(F)c3)ccnc2cc1OCCN1CCOCC1 [Example 375, 4-(4-(Cyclopropylaminocarbonyl)amino-3-fluorophenoxy)-7-(2-(4-morpholino)ethoxy)-6-quinolinecarboxamide]				
16 nM	COCCOc1cc2nccc(Sc3ccc(NC(=O)Nc4ccc(C)cc4)s3)c2cc1C#N [Example 259, 1-{5-[6-Cyano-7-(2-methoxyethoxy)quinolin-4-ylsulfanyl]thiophen-2-yl}-3-(para-tolyl)urea]				
22 nM	COc1cc2nccc(Oc3ccc(NC(=O)Nc4ccccc4)cc3)c2cc1C#N [Example 37, N-[4-(6-cyano-7-methoxyquinolin-4-yloxy)phenyl]-N′-phenylurea]				
	CCN(CC)CCCOc1cc2nccc(Oc3ccc(NC(=O)Nc4ccccc4)cc3)c2cc1C#N [Example 75, N-(4-(6-Cyano-7-(3-(diethylamino)propoxy)-4-quinolyloxy)phenyl)-N′-phenylurea]	+++	+/−	−	1.4 nM
	CCN1CCN(CCCOc2cc3nccc(Oc4ccc(NC(=O)Nc5ccc(OC)cc5)cc4)c3cc2C#N)CC1 [Example 53, N-(4-(6-Cyano-7-(3-(1-(4-ethyl)piperazino)propoxy)-4-quinolyl)oxyphenyl)-N′-(4-methoxyphenyl)urea]	+++	+/−	−	9.9 nM
	COc1cc2nccc(Oc3ccc(NC(=O)NC4CC4)c(Cl)c3)c2cc1C(=O)NCCF [Example 415, N6-(2-Fluoroethyl)-4-(3-chloro-4-(((cyclopropylamino)carbonyl)amino)phenoxy)-7-methoxy-6-quinolinecarboxamide]	+/−	−	−	3.8 nM
	CS(=O)(=O)c1cccc(NC(=O)Nc2ccc(Oc3ccnc4cc(OCCCN5CCOCC5)c(C#N)cc34)cc2)c1 [Example 74, N-(4-(6-Cyano-7-(3-(4-morpholino)propoxy)-4-quinolyl)oxyphenyl)-N′-(3-(methylsulfonyl)phenyl)urea]	++	−	−	5.9 nM
	CCN(CC)CCOc1ccc(-c2cc3c(Oc4ccc(NC(=O)NC5CC5)c(Cl)c4)ncnc3[nH]2)cc1 [Example 153, 1-(2-Chloro-4-{6-[4-(2-diethylaminoethoxy)-phenyl]-7H-pyrrolo[2,3-d]pyrimidin-4-yloxy}phenyl)-3-cyclopropylurea]	+/−	−	−	0.02 nM
	N#Cc1cc2c(Oc3ccc(NC(=O)Nc4ccc(F)cc4F)c(F)c3)ccnc2cc1OCc1ccccc1 [Example 81, N-(4-(6-Cyano-7-benzyloxy-4-quinolyl)oxy-2-fluorophenyl)-N′-(2,4-difluorophenyl)urea]	++	−	−	1.8 nM
	COc1ccc(NC(=O)Nc2ccc(Oc3ccnc4cc(OCCOCCO)c(C#N)cc34)cc2)cc1 [Example 72, N-(4-(6-Cyano-7-(2-(2-hydroxyethoxy)ethoxy)-4-quinolyl)oxyphenyl)-N′-(4-methoxyphenyl)urea]	+++	−	−	22 nM
